Experiments:
[1] = target: T1, Serine/threonine-protein kinase STK11 (Homo sapiens) (UniProt Q15831); test: Inhibition of LKB1 K2 labeling site in human Huh-7 cells at 10 uM by KiNativ Profiling analysis relative to control; format: cell-based
T1 sequence (whole entry): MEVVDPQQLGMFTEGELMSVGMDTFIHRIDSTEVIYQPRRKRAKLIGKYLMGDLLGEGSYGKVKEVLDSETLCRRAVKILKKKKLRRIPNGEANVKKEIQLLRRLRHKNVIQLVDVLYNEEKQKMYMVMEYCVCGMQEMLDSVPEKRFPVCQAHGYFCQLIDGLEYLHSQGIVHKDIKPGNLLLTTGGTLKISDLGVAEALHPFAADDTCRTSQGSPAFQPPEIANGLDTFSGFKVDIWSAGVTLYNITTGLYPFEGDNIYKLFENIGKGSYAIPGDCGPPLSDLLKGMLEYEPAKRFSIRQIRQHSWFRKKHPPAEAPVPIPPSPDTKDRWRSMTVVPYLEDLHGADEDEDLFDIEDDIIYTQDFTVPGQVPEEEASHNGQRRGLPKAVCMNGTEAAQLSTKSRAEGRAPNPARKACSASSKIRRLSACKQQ

[2] = target: T2, Mitogen-activated protein kinase kinase kinase 15 (Homo sapiens) (UniProt Q6ZN16); test: Inhibition of MAP3K15 Lys1 labeling site harbouring IAIKEIPER in human A-375 cells at 5 uM by KiNativ Profiling analysis relative to control; format: cell-based
T2 sequence (whole entry): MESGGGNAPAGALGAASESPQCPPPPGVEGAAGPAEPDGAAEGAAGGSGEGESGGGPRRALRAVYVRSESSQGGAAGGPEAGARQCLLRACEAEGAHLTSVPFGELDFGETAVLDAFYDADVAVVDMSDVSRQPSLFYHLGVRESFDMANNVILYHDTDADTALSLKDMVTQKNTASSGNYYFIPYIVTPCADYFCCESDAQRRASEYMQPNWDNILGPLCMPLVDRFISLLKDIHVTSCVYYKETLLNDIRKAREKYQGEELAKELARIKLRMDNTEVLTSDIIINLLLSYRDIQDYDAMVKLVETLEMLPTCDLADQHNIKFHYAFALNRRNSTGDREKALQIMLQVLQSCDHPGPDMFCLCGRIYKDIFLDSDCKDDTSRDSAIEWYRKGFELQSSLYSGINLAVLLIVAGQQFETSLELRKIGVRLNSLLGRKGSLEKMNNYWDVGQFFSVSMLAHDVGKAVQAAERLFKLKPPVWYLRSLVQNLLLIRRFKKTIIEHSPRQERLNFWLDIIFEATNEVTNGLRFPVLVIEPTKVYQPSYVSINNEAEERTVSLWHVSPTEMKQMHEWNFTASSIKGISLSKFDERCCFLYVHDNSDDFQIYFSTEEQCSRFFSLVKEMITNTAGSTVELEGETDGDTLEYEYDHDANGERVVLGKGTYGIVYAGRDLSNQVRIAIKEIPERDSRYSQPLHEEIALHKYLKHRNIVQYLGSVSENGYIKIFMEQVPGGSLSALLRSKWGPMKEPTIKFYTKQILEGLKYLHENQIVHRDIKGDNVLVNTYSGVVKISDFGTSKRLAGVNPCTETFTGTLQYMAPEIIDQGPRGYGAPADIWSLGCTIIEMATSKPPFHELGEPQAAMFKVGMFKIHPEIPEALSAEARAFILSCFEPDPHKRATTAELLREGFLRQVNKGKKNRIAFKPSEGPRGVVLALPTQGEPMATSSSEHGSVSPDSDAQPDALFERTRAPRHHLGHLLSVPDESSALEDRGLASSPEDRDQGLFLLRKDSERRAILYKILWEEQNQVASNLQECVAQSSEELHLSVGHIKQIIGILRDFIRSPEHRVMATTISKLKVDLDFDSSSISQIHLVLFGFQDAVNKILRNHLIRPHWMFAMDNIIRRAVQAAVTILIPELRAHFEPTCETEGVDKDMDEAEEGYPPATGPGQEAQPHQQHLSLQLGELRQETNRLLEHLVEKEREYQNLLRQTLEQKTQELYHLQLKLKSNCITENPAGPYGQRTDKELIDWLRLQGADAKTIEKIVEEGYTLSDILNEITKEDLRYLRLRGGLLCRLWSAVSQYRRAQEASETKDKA

[3] = target: Serine/threonine-protein kinase N2 (Homo sapiens) (UniProt Q16513); test: Inhibition of PKN2 Lys2 labeling site in human A-375 cells at 0.05 uM by KiNativ Profiling analysis relative to control; format: cell-based
[4] = target: Tyrosine-protein kinase Yes (Homo sapiens) (UniProt P07947); test: Inhibition of YES (unknown origin) at 1 uM by Ambit Kinomescan binding assay relative to control; values are per cent of control
Chain of Tyrosine-protein kinase Yes (Homo sapiens) (P07947 2-543 limits assumed): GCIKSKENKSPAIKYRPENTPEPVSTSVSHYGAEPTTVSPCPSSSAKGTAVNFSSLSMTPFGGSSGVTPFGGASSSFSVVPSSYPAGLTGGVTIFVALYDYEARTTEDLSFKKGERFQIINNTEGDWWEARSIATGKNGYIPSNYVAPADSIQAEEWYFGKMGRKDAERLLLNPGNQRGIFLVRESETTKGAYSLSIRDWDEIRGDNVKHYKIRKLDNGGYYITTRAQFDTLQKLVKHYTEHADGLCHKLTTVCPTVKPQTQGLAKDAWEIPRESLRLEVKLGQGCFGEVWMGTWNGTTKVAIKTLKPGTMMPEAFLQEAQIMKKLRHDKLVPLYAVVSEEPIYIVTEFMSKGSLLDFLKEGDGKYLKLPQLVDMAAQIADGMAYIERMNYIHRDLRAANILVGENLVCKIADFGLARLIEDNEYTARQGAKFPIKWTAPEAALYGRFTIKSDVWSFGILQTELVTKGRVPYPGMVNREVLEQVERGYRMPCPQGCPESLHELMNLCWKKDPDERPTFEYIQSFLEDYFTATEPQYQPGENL

Chain of Serine/threonine-protein kinase N2 (Homo sapiens) (Q16513 whole entry, looked up): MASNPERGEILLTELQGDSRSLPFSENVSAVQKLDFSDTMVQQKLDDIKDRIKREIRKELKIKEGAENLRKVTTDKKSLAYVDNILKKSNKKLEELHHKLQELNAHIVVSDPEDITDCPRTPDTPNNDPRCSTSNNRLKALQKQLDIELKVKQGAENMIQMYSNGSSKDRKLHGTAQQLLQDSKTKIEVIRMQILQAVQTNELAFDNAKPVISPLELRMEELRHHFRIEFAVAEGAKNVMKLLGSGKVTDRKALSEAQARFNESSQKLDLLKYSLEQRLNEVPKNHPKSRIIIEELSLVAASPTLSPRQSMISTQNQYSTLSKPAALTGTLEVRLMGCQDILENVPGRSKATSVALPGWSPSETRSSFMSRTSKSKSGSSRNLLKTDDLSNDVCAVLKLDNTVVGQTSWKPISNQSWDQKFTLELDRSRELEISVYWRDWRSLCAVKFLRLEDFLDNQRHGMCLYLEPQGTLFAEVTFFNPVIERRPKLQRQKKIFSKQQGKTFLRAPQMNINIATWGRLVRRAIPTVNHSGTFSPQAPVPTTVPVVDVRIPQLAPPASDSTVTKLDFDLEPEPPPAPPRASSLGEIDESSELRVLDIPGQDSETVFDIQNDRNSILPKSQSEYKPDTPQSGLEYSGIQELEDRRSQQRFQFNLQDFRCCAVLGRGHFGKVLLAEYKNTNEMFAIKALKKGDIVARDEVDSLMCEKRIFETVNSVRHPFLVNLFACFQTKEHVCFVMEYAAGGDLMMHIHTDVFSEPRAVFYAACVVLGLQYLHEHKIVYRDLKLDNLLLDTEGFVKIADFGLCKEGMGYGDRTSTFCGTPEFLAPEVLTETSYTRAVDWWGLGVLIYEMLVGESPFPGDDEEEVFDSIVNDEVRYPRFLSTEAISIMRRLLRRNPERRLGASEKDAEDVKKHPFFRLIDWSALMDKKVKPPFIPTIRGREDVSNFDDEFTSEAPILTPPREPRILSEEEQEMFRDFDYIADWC

| Compound | inhibition [1] | inhibition [2] | inhibition [3] | percent of control [4] |
| --- | --- | --- | --- | --- |
| CCN1CCN(Cc2ccc(NC(=O)c3ccc(C)c(Oc4ccnc5[nH]ccc45)c3)cc2C(F)(F)F)CC1 | 11.6% | -0.6% | 5.3% |  |
| CCN1CCN(Cc2ccc(NC(=O)c3ccc(C)c(/C=C/c4cnc5[nH]ccc5c4OC)c3)cc2C(F)(F)F)CC1 |  |  |  | 2.2% |

Reference: ChEMBL document CHEMBL5696442, “Discovery of type II inhibitors of TGFβ-activated kinase 1 (TAK1) and mitogen-activated protein kinase kinase kinase kinase 2 (MAP4K2)” (J Med Chem, 2015)
